# Columns and labels:
# [1] = test system: human glioblastoma (EL 2056); test: Tumor growth inhibition, patient-derived tumor model EL2056; assay type: in vivo; settings: EL2056 in mice, oral 8 mg/kg, (Mon, Wed, Fri)x5; p <0.0001
# Description: (§1) To evaluate in vivo efficacy and effect of 4,4,4-Trifluoro-N-[(1S)-2-[[(7S)-5-(2-hydroxyethyl)-6-oxo-7H-pyrido[2,3-d][3]benzazepin-7-yl]amino]-1-methyl-2-oxo-ethyl]butanamide on inhibition of Notch processing pharmacodynamics (PD), several cell lines- and patient-derived xenograft models are used. A2780 is a human ovarian cell line (Sigma-Aldrich, No. 93112519); SW480 is a human colorectal cell line (ATCC No. CCL-228); HCT 116 is a human colorectal cell line (ATCC No. CCL-247); U-87 MG is a human glioblastoma cell line (ATCC No. HTB-14); A375 is a human malignant melanoma cell line (ATCC No. CRL-1619); K-562 is a human chronic myelogenous leukemia (CML) cell line characterized by the presence of a fusion transcript comprised of the Bcr and Abl1 genes (ATCC No. CCL-243); Jurkat; HEL 92.1.7 is a human erythroleukemia cell line (ATCC No. TIB-180). […] Tumor growth and body weight are monitored over time to evaluate efficacy and signs of toxicity. Bidimensional measurements of tumors are performed twice a week and tumor volumes are calculated based on the following formula: (Tumor Volume)=[(L)×(W2)×(Π/6)] where L is mid-axis length and W is mid-axis width. […] The log volume data are analyzed with a two-way repeated measures analysis of variance by time and treatment using the MIXED™ procedures in SAS™ software (version 8.2). […]
# [2] = Toxicokinetics in rats; assay type: in vivo, rat
# Description: A study is carried out to assess the toxicity and toxicokinetics of 4,4,4-Trifluoro-N-[(1S)-2-[[(7S)-5-(2-hydroxyethyl)-6-oxo-7H-pyrido[2,3-d][3]benzazepin-7-yl]amino]-1-methyl-2-oxo-ethyl]butanamide in rats given oral gavage doses of 0, 1.3, or 4.3 mg/kg once daily for 2 weeks or 1, 3, 10, or 30 mg/kg 3 times/week for 2 weeks.
# 4,4,4-Trifluoro-N-[(1S)-2-[[(7S)-5-(2-hydroxyethyl)-6-oxo-7H-pyrido[2,3-d][3]benzazepin-7-yl]amino]-1-methyl-2-oxo-ethyl]butanamide is combined with a vehicle comprising 1% carboxymethylcellulose sodium, 0.25% polysorbate 80 and 0.05% Dow Corning® Antifoam 1510-US in purified water. Sprague Dawley CD®/IGS rats (crl:CD(SD)), International Genetic Standardization (IGS) 7-9 week old rats, 3/sex/group, Charles River Laboratories, Inc, are used for the study. Animals are fed ad libitum with 12 hours light, 12 hours dark cycle maintained in ventilated stainless-steel racks at an ambient temperature of 22.2+/[…] and relative humidity of 30% to 70%. The test compound is dosed according to Table 1. The test compound is administered by oral gavage in a volume of 10 mL/kg body weight. The duration of the study for all groups is 14 days.
# Additional Groups of animals 3/sex/group (Groups 08, 09, and 12) and 3 females/group (Groups 10, 11, and 13) are dosed for toxicokinetic evaluations. For Groups 08, 09, and 10, blood is collected from each animal at the following times relative to dosing on Days 3 and 14: 0 (predose; Day 14 only), 0.5, 1, 2, 4, 8, 24, 30, and 48 hours postdose. For Group 11, blood is collected from each animal at the following times relative to dosing on Day 3: 0.5, 1, 2, 4, 8, 24, 30, and 48 hours postdose. For Group 12, blood is collected from each animal at the following times relative to dosing on Days 1 and 14: 0 (predose; Day 14 only), 0.5, 1, 2, 4, 8, and 24 hours postdose. For Group 13 blood is collected from each animal at the following times relative to dosing on Day 1: 0.5, 1, 2, 4, 8, and 24 hours postdose. Groups 08 through 13 are used for toxicokinetic evaluations. […]
# [3] = test system: HCT 116 human colorectal cell line; test: Tumor growth inhibition, HCT 116 xenograft; assay type: in vivo; settings: HCT 116 in mice, oral 8 mg/kg, (Mon, Wed, Fri)x4; p <0.05 to <0.01
# Description: as §1
# [4] = test system: U-87 MG human glioblastoma cell line; test: Tumor growth inhibition, U-87 MG xenograft; assay type: in vivo; settings: U-87 MG in mice, oral 8 mg/kg, (Mon, Wed, Fri)x4; p <0.0001
# Description: as §1
compound,measurement,setting,value
"C[C@H](NC(=O)CCC(F)(F)F)C(=O)N[C@@H]1C(=O)N(CCO)c2ncccc2-c2ccccc21 [Compound 1, 4,4,4-trifluoro-N-[(1S)-2-[[(7S)-5-(2-hydroxyethyl)-6-oxo-7H-pyrido[2,3-d][3]benzazepin-7-yl]amino]-1-methyl-2-oxo-ethyl]butanamide]",% TGI,[1],59.05 (<0.0001) %
same,24 hour drug concentrations,"[2]; rat, daily and TIW regimens",minimal
same,Accumulation and differences between sexes in exposure,"[2]; rats, oral gavage",No accumulation or major differences between sexes
same,Exposure (AUC0-24 hr) versus dose,"[2]; rats, oral gavage, following both single and multiple doses",increased in a roughly linear and dose-proportional manner
same,% TGI,[3],37.58 (<0.05 to %
same,% TGI,[4],53.33 (<0.0001) %

# Reference: US20190209581A1, “DOSAGE REGIMEN FOR TREATMENT OF SOLID TUMORS” (Eli Lilly and Company, priority 2016, published 2019)
